# According to patent US20250144067A1, “PERSONALIZED STARVATION THERAPY FOR CANCER” (Faeth Therapeutics, Inc., priority 2021, published 2025):
# Where a name gives a salt, the structure may show the parent alone.
# Legend:
# [1] = system: NCI-H292 lung cancer cells; assay: FDA drug screening, complete media vs cholesterol-free media without statin (TABLE 1); format: cell-based, human
# [2] = system: NCI-H292 lung cancer cells; assay: FDA drug screening, complete media vs cholesterol-free media with simvastatin (TABLE 2); format: cell-based, human; details: for Cholesterol-free media + simvastatin (0.04 μM) / Complete Media: NCI-H292 cells
# [3] = Complete minus Cholesterol-free, >0 enhanced anti-cancer activity, about 0 neutral, <0 antagonist
# [4] = NCI-H292 cells, cholesterol-free media without statin
# [5] = FDA library drug in cholesterol-free media with simvastatin 0.04 μM
# [6] = FDA library drug in complete media
# [7] = complete media vs cholesterol-free media + simvastatin (0.04 μM), >0 enhanced anti-cancer activity, about 0 neutral, <0 antagonist
# [8] = Complete minus Cholesterol-free, […]
# [9] = FDA drug library screen, cholesterol-free media with simvastatin 0.04 μM
# [10] = FDA drug library screen, complete media
# [11] = complete media minus cholesterol-free media + simvastatin, […]
# [12] = cholesterol-free media with simvastatin 0.04 μM, cell growth value in FDA drug screen
# [13] = complete media, cell growth value in FDA drug screen
# [14] = complete media minus cholesterol-free media + simvastatin, >0 enhanced anti-cancer activity, about 0 neutral, <0 antagonist
# [15] = NCI-H292 cells, cholesterol-free media without statin, FDA drug library screen
# [16] = NCI-H292 cells, complete media, FDA drug library screen
# [17] = NCI-H292 cells in cholesterol-free media without statin
# [18] = NCI-H292 cells in complete media
# [19] = complete vs cholesterol-free media, >0 enhanced anti-cancer activity, about 0 neutral, <0 antagonist
# [20] = Complete minus Cholesterol-free, greater than 0 enhanced anti-cancer activity, about 0 neutral, below 0 antagonists
compound,measurement,setting,value
COc1ccccc1OCC(O)COC(N)=O (stereo not drawn) [Methocarbamol],Difference,[1]; [3],−0.29
same,Cholesterol-free,[1]; [4],1.357
same,Complete,"[1]; NCI-H292 cells, complete media",1.063
same,Cholesterol-free media + simvastatin (0.04 μM),[2]; [5],1.33
same,Complete Media,[2]; [6],0.8727
same,Difference,[2]; [7],−0.46
O=S(=O)([O-])CCSSCCS(=O)(=O)[O-].[Na+].[Na+] [Dimesna],Difference,[1]; [8],−0.18
same,Cholesterol-free,"[1]; NCI-H292 cells, FDA drug library screen, cholesterol-free media without statin",1.073
same,Complete,"[1]; NCI-H292 cells, FDA drug library screen, complete media",0.897
same,Cholesterol-free media + simvastatin (0.04 μM),[2]; [9],0.7165
same,Complete Media,[2]; [10],1.057
same,Difference,[2]; [11],0.34
CCC(=O)OCC(=O)[C@@]1(OC(=O)CC)[C@@H](C)C[C@H]2[C@@H]3CCC4=CC(=O)C=C[C@]4(C)[C@@]3(F)[C@@H](O)C[C@@]21C [Betamethasone dipropionate],Difference,[1]; [3],−0.28
same,Cholesterol-free,[1]; [4],0.9149
same,Complete,"[1]; NCI-H292 cells, complete media",0.6317
same,Cholesterol-free media + simvastatin (0.04 μM),[2]; [12],0.5238
same,Complete Media,[2]; [13],0.6181
same,Difference,[2]; [14],0.09
COc1cc2c(cc1OC)C(=O)C(CC1CCN(Cc3ccccc3)CC1)C2 (stereo not drawn) [Donepezil],Difference,[1]; [3],0.03
same,Cholesterol-free,[1]; [15],0.9537
same,Complete,[1]; [16],0.9881
same,Cholesterol-free media + simvastatin (0.04 μM),[2]; [9],1.009
same,Complete Media,[2]; [10],1.62
same,Difference,[2]; [14],0.61
COc1ccc2cc([C@H](C)C(=O)O)ccc2c1 [Naproxen],Difference,[1]; [3],−0.23
same,Cholesterol-free,[1]; [4],1.155
same,Complete,"[1]; NCI-H292 cells, complete media",0.9257
same,Cholesterol-free media + simvastatin (0.04 μM),[2]; [12],0.9241
same,Complete Media,[2]; [13],1.007
same,Difference,[2]; [14],0.08
NC[C@H](CC(=O)O)c1ccc(Cl)cc1 [(R)-Baclofen],Difference,[1]; [8],−0.91
same,Cholesterol-free,[1]; [17],2.052
same,Complete,[1]; [18],1.14
same,Cholesterol-free media + simvastatin (0.04 μM),[2]; [9],0.9854
same,Complete Media,[2]; [10],0.8585
same,Difference,"[2]; complete media vs cholesterol-free media + simvastatin (0.04 μM), […]",−0.13
COc1cc2c(Nc3ccc(Br)cc3F)ncnc2cc1OCC1CCN(C)CC1 [Vandetanib],Cholesterol-free,[1]; [15],0.1902
same,Complete,[1]; [16],0.3633
same,Difference,[1]; [19],0.17
same,Cholesterol-free media + simvastatin (0.04 μM),[2]; [9],0.4174
same,Complete Media,[2]; [10],0.7391
same,Difference,[2]; [14],0.32
COc1cccc(-c2c(C)n(Cc3c(F)cccc3C(F)(F)F)c(=O)n(C[C@H](NCCCC(=O)O)c3ccccc3)c2=O)c1F [Elagolix sodium],Difference,[1]; [20],−0.93
same,Cholesterol-free,[1]; [17],1.728
same,Complete,[1]; [18],0.7978
same,Cholesterol-free media + simvastatin (0.04 μM),[2]; [9],1.413
same,Complete Media,[2]; [10],1.627
same,Difference,[2]; [14],0.21
C#C[C@]1(O)CC[C@H]2[C@@H]3CCC4=CC(=O)CCC4=C3C=C[C@@]21CC [Gestrinone],Cholesterol-free,[1]; [15],0.8898
same,Complete,[1]; [16],2.026
same,Difference,"[1]; complete vs cholesterol-free media, […]",1.14
same,Cholesterol-free media + simvastatin (0.04 μM),[2]; [9],1.007
same,Complete Media,[2]; [10],1.693
same,Difference,[2]; [11],0.69
OC(c1cc(C(F)(F)F)nc2c(C(F)(F)F)cccc12)C1CCCCN1 (stereo not drawn) [Mefloquine (hydrochloride)],Difference,[1]; [20],−0.49
same,Cholesterol-free,[1]; [17],1.439
same,Complete,[1]; [18],0.9523
same,Cholesterol-free media + simvastatin (0.04 μM),[2]; [9],1.137
same,Complete Media,[2]; [10],1.057
same,Difference,[2]; [7],−0.08
CC(=O)Oc1c(C)c(C)c2c(c1C)CCC(C)(CCC[C@H](C)CCC[C@H](C)CCCC(C)C)O2 (stereo partly drawn) [D-α-Tocopherol acetate],Cholesterol-free,[1]; [15],0.7729
same,Complete,[1]; [16],1.233
same,Difference,[1]; [19],0.46
same,Cholesterol-free media + simvastatin (0.04 μM),[2]; [12],0.8974
same,Complete Media,[2]; [13],1.003
same,Difference,[2]; [14],0.11
CN(C)N(C)C(=O)[C@@]1(Cc2ccccc2)CCCN(C(=O)[C@@H](Cc2c[nH]c3ccccc23)NC(=O)C(C)(C)N)C1 [Anamorelin],Difference,[1]; [20],−0.54
same,Cholesterol-free,[1]; [17],1.02
same,Complete,[1]; [18],0.4827
same,Cholesterol-free media + simvastatin (0.04 μM),[2]; [12],1.263
same,Complete Media,[2]; [13],1.358
same,Difference,[2]; [14],0.10
OC[C@@H](O)[C@@H](O[C@H]1O[C@H](CO)[C@@H](O)[C@H](O)[C@H]1O)[C@H](O)[C@@H](O)CO [Maltitol],Cholesterol-free,[1]; [4],1.093
same,Complete,"[1]; NCI-H292 cells, complete media",0.7088
same,Difference,"[1]; complete vs cholesterol-free media, greater than 0 enhanced anti-cancer activity, about 0 neutral, below 0 antagonists",−0.38
same,Cholesterol-free media + simvastatin (0.04 μM),[2]; [5],1.264
same,Complete Media,[2]; [6],0.9377
same,Difference,[2]; [7],−0.33
CC(C)NNC(=O)c1ccncc1 [Iproniazid],Difference,[1]; [20],−0.56
same,Cholesterol-free,[1]; [17],1.339
same,Complete,[1]; [18],0.7813
same,Cholesterol-free media + simvastatin (0.04 μM),[2]; [9],1.211
same,Complete Media,[2]; [10],1.75
same,Difference,[2]; [14],0.54
